This assay has as its target T1, human full-length MKNK1 (Homo sapiens, UniProt Q9BUB5, T385D).
T1 construct: GST (N); purchased Carna Biosciences 02-145; host or cells: insect cells (baculovirus expression system)
As to the kind of experiment: MKNK1 kinase high ATP assay (TR-FRET). Particulars: TR-FRET, 2 mM ATP (high ATP), 15 min preincubation with enzyme, 30 min reaction at 22° C.; read-out: MKNK1 IC50. It is filed as biochemical. The procedure:
MKNK1 Kinase High ATP Assay
MKNK1-inhibitory activity at high ATP of compounds of the present invention after their preincubation with MKNK1 was quantified employing the TR-FRET-based MKNK1 high ATP assay as described in the following paragraphs.
As substrate for the kinase reaction the biotinylated peptide biotin-Ahx-[…] (C-terminus in amide form) was used, which can be purchased e.g. from the company Biosyntan (Berlin-Buch, Germany).
For the assay 50 nL of a 100 fold concentrated solution of the test compound in DMSO was pipetted into a black low volume 384 well microtiter plate (Greiner Bio-One, Frickenhausen, Germany), 2 μL of a solution of MKNK1 in aqueous assay buffer [50 mM HEPES pH 7.5, 5 mM MgCl2, 1.0 mM dithiothreitol, 0.005% (v/v) Nonidet-P40 (Sigma)] was added and the mixture was incubated for 15 min at 22° C. to allow pre-binding of the test compounds to the enzyme before the start of the kinase reaction. Then the kinase reaction was started by the addition of 3 μL of a solution of adenosine-tri-phosphate (ATP, 3.3 mM=>final conc. in the 5 μL assay volume is 2 mM) and substrate (0.1 μM=>final conc. in the 5 μL assay volume is 0.06 μM) in assay buffer and the resulting mixture was incubated for a reaction time of 30 min at 22° C. The concentration of MKNK1 was adjusted depending of the activity of the enzyme lot and was chosen appropriate to have the assay in the linear range, typical concentrations were in the range of 0.003 μg/mL. The reaction was stopped by the addition of 5 μL of a solution of TR-FRET detection reagents (5 nM streptavidine-XL665 [Cisbio Bioassays, Codolet, France] and 1 nM anti-ribosomal protein S6 (pSer236)-antibody from Invitrogen [#44921G] and 1 nM LANCE EU-W1024 labeled ProteinG [Perkin-Elmer, product no. AD0071]) in an aqueous EDTA-solution (100 mM EDTA, 0.1% (w/v) bovine serum albumin in 50 mM HEPES pH 7.5).
The resulting mixture was incubated for 1 h at 22° C. to allow the formation of complex between the phosphorylated biotinylated peptide and the detection reagents. Subsequently the amount of phosphorylated substrate was evaluated by measurement of the resonance energy transfer from the Eu-chelate to the streptavidine-XL. Therefore, the fluorescence emissions at 620 nm and 665 nm after excitation at 350 nm were measured in a TR-FRET reader, e.g. a Rubystar (BMG Labtechnologies, Offenburg, Germany) or a Viewlux (Perkin-Elmer). The ratio of the emissions at 665 nm and at 622 nm was taken as the measure for the amount of phosphorylated substrate.
T1 sequence (Q9BUB5 1-424 isoform Q9BUB5-2 T344D): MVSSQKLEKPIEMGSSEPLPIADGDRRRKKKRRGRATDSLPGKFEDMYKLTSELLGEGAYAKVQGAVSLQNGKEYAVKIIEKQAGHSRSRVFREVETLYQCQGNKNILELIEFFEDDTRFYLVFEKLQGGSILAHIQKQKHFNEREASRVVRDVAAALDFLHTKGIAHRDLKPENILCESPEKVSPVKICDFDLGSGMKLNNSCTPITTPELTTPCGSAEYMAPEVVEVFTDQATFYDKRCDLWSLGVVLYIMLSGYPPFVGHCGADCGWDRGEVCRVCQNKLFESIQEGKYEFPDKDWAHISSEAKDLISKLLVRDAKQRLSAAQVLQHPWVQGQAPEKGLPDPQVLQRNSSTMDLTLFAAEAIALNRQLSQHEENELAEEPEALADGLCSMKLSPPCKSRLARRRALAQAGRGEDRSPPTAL
As to `N#CC1CN(C(=O)[C@H]2CCc3c(sc4ncnc(Nc5cc(Cl)c6n(c5=O)C5(CCCCC5)NC6=O)c34)C2)C1` [Example 77, 1-({(7S)-4-[(8′-Chloro-1′,5′-dioxo-1′,5′-dihydro-2′H-spiro[cyclohexane-1,3′-imidazo[1,5-a]pyridin]-6′-yl)amino]-5,6,7,8-tetrahydro[1]benzothieno[2,3-d]pyrimidin-7-yl}carbonyl)azetidine-3-carbonitrile], the IC50 came to 0.8 nM.

For the molecule `C[C@@H]1CN(C(=O)[C@H]2CCc3c(sc4ncnc(Nc5cc(Cl)c6n(c5=O)C5(CSC5)NC6=O)c34)C2)CCN1C` [Example 107, 8-Chloro-6-({(7S)-7-[(3R)-3,4-dimethylpiperazine-1-carbonyl]-5,6,7,8-tetrahydro[1]benzothieno[2,3-d]pyrimidin-4-yl}amino)-2H-spiro[imidazo[1,5-a]pyridine-3,3′-thietane]-1,5-dione], the IC50 was determined as 0.2 nM. Regarding `Cc1cc(Nc2ncnc3sc4c(c23)CC[C@H](C(=O)N2CC(C#N)C2)C4)c(=O)n2c1C(=O)NC21CS(=O)(=O)C1` [Example 68, 1-({(7S)-4-[(8-Methyl-1′,1′-dioxido-1,5-dioxo-1,5-dihydro-2H-spiro[imidazo[1,5-a]pyridine-3,3′-thietan]-6-yl)amino]-5,6,7,8-tetrahydro[1]benzothieno[2,3-d]pyrimidin-7-yl}carbonyl)azetidine-3-carbonitrile], the 50% inhibitory concentration (IC50) was 2.5 nM. For the molecule `Cc1cc(Nc2ncnc3sc4c(c23)CC[C@H](C(=O)N2C[C@H]3C[C@@H]2CO3)C4)c(=O)n2c1C(=O)NC21CCC1` [Example 26, 8′-Methyl-6′-({(7S)-7-[(1R,4R)-2-oxa-5-azabicyclo[2.2.1]hept-5-ylcarbonyl]-5,6,7,8-tetrahydro[1]benzothieno[2,3-d]pyrimidin-4-yl}amino)-2′H-spiro[cyclobutane-1,3′-imidazo[1,5-a]pyridine]-1′,5′-dione], the IC50 was determined as 0.7 nM.

As to `Cc1cc(Nc2ncnc3sc4c(c23)CC[C@H](C(=O)N2CCC2)C4)c(=O)n2c1C(=O)NC21CS(=O)(=O)C1` [Example 67, 6-{[(7S)-7-(Azetidin-1-ylcarbonyl)-5,6,7,8-tetrahydro[1]benzothieno[2,3-d]pyrimidin-4-yl]amino}-8-methyl-2H-spiro[imidazo[1,5-a]pyridine-3,3′-thietane]-1,5-dione 1′,1′-dioxide], the IC50 was 2 nM. For the molecule `O=C1NC2(CCCC2)n2c1c(Cl)cc(Nc1ncnc3sc4c(c13)CC[C@H](C(=O)N1C[C@H]3C[C@@H]1CO3)C4)c2=O` [Example 92, 8′-Chloro-6′-({(7S)-7-[(1R,4R)-2-oxa-5-azabicyclo[2.2.1]heptane-5-carbonyl]-5,6,7,8-tetrahydro[1]benzothieno[2,3-d]pyrimidin-4-yl}amino)-2′H-spiro[cyclopentane-1,3′-imidazo[1,5-a]pyridine]-1′,5′-dione], the IC50 was determined as 1 nM. As to `Cc1cc(Nc2ncnc3sc4c(c23)CC[C@H](C(=O)N2CC[C@H](N(C)C)C2)C4)c(=O)n2c1C(=O)NC2(C)C` [Example 31, 6-{[(7S)-7-{[(3S)-3-(Dimethylamino)pyrrolidin-1-yl]carbonyl}-5,6,7,8-tetrahydro[1]benzothieno[2,3-d]pyrimidin-4-yl]amino}-3,3,8-trimethyl-2,3-dihydroimidazo[1,5-a]pyridine-1,5-dione], the IC50 came to 0.9 nM.

Consider `N#CC1CN(C(=O)[C@H]2CCc3c(sc4ncnc(Nc5cc(Cl)c6n(c5=O)C5(CSC5)NC6=O)c34)C2)C1` [Example 104, 1-{(7S)-4-[(8-Chloro-1,5-dioxo-1,5-dihydro-2H-spiro[imidazo[1,5-a]pyridine-3,3′-thietan]-6-yl)amino]-5,6,7,8-tetrahydro[1]benzothieno[2,3-d]pyrimidine-7-carbonyl}azetidine-3-carbonitrile], for which the IC50 was determined as 0.2 nM. With `Cc1cc(Nc2ncnc3sc4c(c23)CC[C@H](C(=O)N2CC(N(C)C)C2)C4)c(=O)n2c1C(=O)N[C@]21CC[C@@](O)(C(F)(F)F)CC1` [Example 62], the IC50 came to 6.5 nM. Turning to `Cc1cc(Nc2ncnc3sc4c(c23)CC[C@H](C(=O)N2CCC2)C4)c(=O)n2c1C(=O)NC21CCC1` [Example 21, 6′-{[(7S)-7-(Azetidin-1-ylcarbonyl)-5,6,7,8-tetrahydro[1]benzothieno[2,3-d]pyrimidin-4-yl]amino}-8′-methyl-2′H-spiro[cyclobutane-1,3′-imidazo[1,5-a]pyridine]-1′,5′-dione], the IC50 was 0.6 nM. As for `Cc1cc(Nc2ncnc3sc4c(c23)CC[C@H](C(=O)N2CCN(C)[C@H](C)C2)C4)c(=O)n2c1C(=O)NC2(C)C` [Example 32, 6-{[(7S)-7-{[(3R)-3,4-Dimethylpiperazin-1-yl]carbonyl}-5,6,7,8-tetrahydro[1]benzothieno[2,3-d]pyrimidin-4-yl]amino}-3,3,8-trimethyl-2,3-dihydroimidazo[1,5-a]pyridine-1,5-dione], the IC50 is 0.5 nM.

In the case of `Cc1cc(Nc2ncnc3sc4c(c23)CC[C@H](C(=O)N2CC[C@H](N(C)C)C2)C4)c(=O)n2c1C(=O)N[C@]21CC[C@@](O)(C(F)(F)F)CC1` [Example 63, (cis)-6′-{[(7S)-7-{[(3S)-3-(Dimethylamino)pyrrolidin-1-yl]carbonyl}-5,6,7,8-tetrahydro[1]benzothieno[2,3-d]pyrimidin-4-yl]amino}-4-hydroxy-8′-methyl-4-(trifluoromethyl)-2′H-spiro[cyclohexane-1,3′-imidazo[1,5-a]pyridine]-1′,5′-dione], the IC50 turned out to be 1.6 nM. Next, `Cc1cc(Nc2ncnc3sc4c(c23)CC[C@H](C(=O)N2CC[C@H](N(C)C)C2)C4)c(=O)n2c1C(=O)NC21CCCC1` [Example 41, 6′-{[(7S)-7-{[(3S)-3-(Dimethylamino)pyrrolidin-1-yl]carbonyl}-5,6,7,8-tetrahydro[1]benzothieno[2,3-d]pyrimidin-4-yl]amino}-8′-methyl-2′H-spiro[cyclopentane-1,3′-imidazo[1,5-a]pyridine]-1′,5′-dione]: 1.2 nM. For `Cc1cc(Nc2ncnc3sc4c(c23)CC[C@H](C(=O)O)C4)c(=O)n2c1C(=O)NC21CCCC1` [Example 34, (7S)-4-[(8′-Methyl-1′,5′-dioxo-1′,5′-dihydro-2′H-spiro[cyclopentane-1,3′-imidazo[1,5-a]pyridin]-6′-yl)amino]-5,6,7,8-tetrahydro[1]benzothieno[2,3-d]pyrimidine-7-carboxylic acid], the IC50 is 4.7 nM. Take `CN(C)C(=O)[C@H]1CCc2c(sc3ncnc(Nc4cc(Cl)c5n(c4=O)C(C)(C)NC5=O)c23)C1` [Example 111, (7S)-4-[(8-Chloro-3,3-dimethyl-1,5-dioxo-1,2,3,5-tetrahydroimidazo[1,5-a]pyridin-6-yl)amino]-N,N-dimethyl-5,6,7,8-tetrahydro[1]benzothieno[2,3-d]pyrimidine-7-carboxamide]: the IC50 is 0.3 nM.

Turning to `N#CC1CN(C(=O)[C@H]2CCc3c(sc4ncnc(Nc5cc(Cl)c6n(c5=O)C5(CCC5)NC6=O)c34)C2)C1` [Example 97, 1-{(7S)-4-[(8′-Chloro-1′,5′-dioxo-1′,5′-dihydro-2′H-spiro[cyclobutane-1,3′-imidazo[1,5-a]pyridin]-6′-yl)amino]-5,6,7,8-tetrahydro[1]benzothieno[2,3-d]pyrimidine-7-carbonyl}azetidine-3-carbonitrile], the IC50 came out at 0.1 nM. Take `Cc1cc(Nc2ncnc3sc4c(c23)CC[C@H](C(=O)N2CCC2)C4)c(=O)n2c1C(=O)NC21CSC1` [Example 46, 6-{[(7S)-7-(Azetidin-1-ylcarbonyl)-5,6,7,8-tetrahydro[1]benzothieno[2,3-d]pyrimidin-4-yl]amino}-8-methyl-2H-spiro[imidazo[1,5-a]pyridine-3,3′-thietane]-1,5-dione]: the IC50 was 0.6 nM. In the case of `Cc1cc(Nc2ncnc3sc4c(c23)CC[C@H](C(=O)N2CCC2)C4)c(=O)n2c1C(=O)N[C@]21CC[C@@](O)(C(F)(F)F)CC1` [Example 61, (cis)-6′-{[(7S)-7-(Azetidin-1-ylcarbonyl)-5,6,7,8-tetrahydro[1]benzothieno[2,3-d]pyrimidin-4-yl]amino}-4-hydroxy-8′-methyl-4-(trifluoromethyl)-2′H-spiro[cyclohexane-1,3′-imidazo[1,5-a]pyridine]-1′,5′-dione] it was 8.4 nM.

Values taken from US20190388425A1, “SUBSTITUTED IMIDAZOPYRIDINPYRIMIDINES” (Bayer Pharma Aktiengesellschaft, priority 2017, published 2019).
